For this assay, the target named is DNA gyrase A/A/B/B tetramer (Escherichia coli (strain K12), UniProt P0AES4+P0AES6). Briefly: Inhibition of Escherichia coli DNA gyrase assessed as supercoiled plasmid DNA formation after 30 mins by electrophoretic analysis.
Consider `C=CCOc1ccccc1/C=C/C(=O)c1ccc(O)cc1O`, for which the IC50 came out at 500 µM.
For `CC1(C)C2CC=C(/C=C/C(=O)c3ccc(O)cc3O)C1C2` (stereo not drawn), the half-inhibitory concentration (IC50) was 250 µM.
Next, `CC[C@H](C)C(=O)c1c(O)cc(O)cc1OC/C=C(\C)CCC=C(C)C` [Olympicin A]: 500 µM.

A word on the IC50: it is the concentration needed to halve the response being measured.

The values are drawn from BindingDB's records for doi:10.1021/jm500853v (University of Hawaii At Hilo, 2014).
